Assay results: ChEMBL document CHEMBL5325437, “Shifting the selectivity of pyrido[2,3-d]pyrimidin-7(8H)-one inhibitors towards the salt-inducible kinase (SIK) subfamily” (Eur J Med Chem, 2023)

How the values were obtained:
Ephrin type-A receptor 2 = Ephrin type-A receptor 2 (Homo sapiens, UniProt P29317); assay: Inhibition of full length NanoLuc fused EPHA2 (unknown origin) transfected in HEK293T cells using NanoBRET NanoGlo substrate incubated for 2 hrs in presence of tracer by NanoBRET assay; type: cell-based
HCT-116 = assay: Cytotoxicity against human HCT-116 cells assessed as decrease in cell viability at 10 uM incubated for 24 hrs by Hoechst-33342 staining high-content imaging analysis; type: toxicity, cell-based; conditions: hct-116, 24 h
[1] = biological target: T1, Serine/threonine-protein kinase 3 (Homo sapiens) (UniProt Q13188); assay: Binding affinity to recombinant MST2 (unknown origin) assessed as stabilization by measuring change in melting temperature at 10 uM by SYPRO orange dye based differential scanning fluorimetry assay
T1 sequence (whole entry): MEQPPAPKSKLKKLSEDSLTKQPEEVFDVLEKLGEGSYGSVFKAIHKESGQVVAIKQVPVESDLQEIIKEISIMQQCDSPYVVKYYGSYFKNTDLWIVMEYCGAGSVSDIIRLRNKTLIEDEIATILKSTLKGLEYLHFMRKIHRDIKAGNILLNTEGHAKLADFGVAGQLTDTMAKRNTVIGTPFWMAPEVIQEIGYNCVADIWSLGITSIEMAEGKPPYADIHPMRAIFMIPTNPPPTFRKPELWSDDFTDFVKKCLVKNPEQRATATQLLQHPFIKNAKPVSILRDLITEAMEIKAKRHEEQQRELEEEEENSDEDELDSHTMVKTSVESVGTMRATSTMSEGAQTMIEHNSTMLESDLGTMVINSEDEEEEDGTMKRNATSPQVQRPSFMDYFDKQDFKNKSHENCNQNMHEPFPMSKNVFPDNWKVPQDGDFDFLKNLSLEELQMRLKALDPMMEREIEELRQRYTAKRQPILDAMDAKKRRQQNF

[2] = biological target: Tyrosine-protein kinase ABL1 (Homo sapiens, UniProt P00519); assay: Inhibition of full length NanoLuc fused ABL1 (unknown origin) transfected in HEK293T cells using NanoBRET NanoGlo substrate incubated for 2 hrs in presence of tracer by NanoBRET assay; type: cell-based
SK-OV-3 = assay: Induction of cell cycle arrest in human SK-OV-3 cells assessed as accumulation of cells at interphase at 5 uM incubated for 24 hrs by flow cytometry; type: functional
[3] = biological target: T2, Serine/threonine-protein kinase 4 (Homo sapiens) (UniProt Q13043); assay: Binding affinity to recombinant MST1 (unknown origin) assessed as stabilization by measuring change in melting temperature at 10 uM by SYPRO orange dye based differential scanning fluorimetry assay
T2 sequence (whole entry): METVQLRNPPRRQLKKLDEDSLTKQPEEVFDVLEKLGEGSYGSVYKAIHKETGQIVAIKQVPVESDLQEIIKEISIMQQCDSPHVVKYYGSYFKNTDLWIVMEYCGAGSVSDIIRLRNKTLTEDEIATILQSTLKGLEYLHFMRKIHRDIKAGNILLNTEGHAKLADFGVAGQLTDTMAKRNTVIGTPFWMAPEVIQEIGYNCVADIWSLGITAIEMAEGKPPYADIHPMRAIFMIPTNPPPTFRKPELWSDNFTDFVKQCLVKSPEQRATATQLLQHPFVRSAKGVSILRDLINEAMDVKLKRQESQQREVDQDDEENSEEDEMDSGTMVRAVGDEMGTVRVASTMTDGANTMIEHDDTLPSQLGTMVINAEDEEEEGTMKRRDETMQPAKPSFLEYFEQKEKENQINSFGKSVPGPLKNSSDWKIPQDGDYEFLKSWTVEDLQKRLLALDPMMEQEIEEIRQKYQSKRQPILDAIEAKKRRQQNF

Sequence of Tyrosine-protein kinase ABL1 (P00519 whole entry, the tested form may be a part): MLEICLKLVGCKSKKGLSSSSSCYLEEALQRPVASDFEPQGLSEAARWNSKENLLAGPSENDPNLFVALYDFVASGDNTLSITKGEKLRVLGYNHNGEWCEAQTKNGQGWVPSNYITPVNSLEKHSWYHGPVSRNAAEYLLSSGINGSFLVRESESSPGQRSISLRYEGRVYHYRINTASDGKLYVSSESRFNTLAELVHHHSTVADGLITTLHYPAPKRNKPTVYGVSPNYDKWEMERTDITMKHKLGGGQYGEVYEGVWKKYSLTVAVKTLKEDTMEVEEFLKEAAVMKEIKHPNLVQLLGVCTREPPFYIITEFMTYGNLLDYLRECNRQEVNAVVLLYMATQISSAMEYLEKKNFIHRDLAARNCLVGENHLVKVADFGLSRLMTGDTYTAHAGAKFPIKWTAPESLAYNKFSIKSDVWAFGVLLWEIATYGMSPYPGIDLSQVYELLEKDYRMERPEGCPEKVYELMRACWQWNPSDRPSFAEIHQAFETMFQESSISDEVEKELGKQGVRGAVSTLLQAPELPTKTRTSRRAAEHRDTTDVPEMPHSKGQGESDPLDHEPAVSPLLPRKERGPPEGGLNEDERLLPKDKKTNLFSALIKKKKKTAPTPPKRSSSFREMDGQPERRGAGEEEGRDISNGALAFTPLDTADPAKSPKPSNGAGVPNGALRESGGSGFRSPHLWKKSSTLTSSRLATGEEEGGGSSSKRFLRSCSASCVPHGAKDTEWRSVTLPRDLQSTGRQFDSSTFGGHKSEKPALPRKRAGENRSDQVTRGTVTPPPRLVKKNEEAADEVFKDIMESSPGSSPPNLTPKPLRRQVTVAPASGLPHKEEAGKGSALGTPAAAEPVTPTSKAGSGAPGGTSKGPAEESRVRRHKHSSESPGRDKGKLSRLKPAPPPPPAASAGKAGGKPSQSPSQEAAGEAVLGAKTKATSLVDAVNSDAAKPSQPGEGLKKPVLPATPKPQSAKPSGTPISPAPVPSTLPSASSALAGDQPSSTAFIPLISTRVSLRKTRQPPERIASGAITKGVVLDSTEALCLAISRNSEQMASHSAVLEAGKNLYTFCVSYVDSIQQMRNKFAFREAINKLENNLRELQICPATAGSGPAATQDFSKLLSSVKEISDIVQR
Sequence of Ephrin type-A receptor 2 (P29317 whole entry, the tested form may be a part): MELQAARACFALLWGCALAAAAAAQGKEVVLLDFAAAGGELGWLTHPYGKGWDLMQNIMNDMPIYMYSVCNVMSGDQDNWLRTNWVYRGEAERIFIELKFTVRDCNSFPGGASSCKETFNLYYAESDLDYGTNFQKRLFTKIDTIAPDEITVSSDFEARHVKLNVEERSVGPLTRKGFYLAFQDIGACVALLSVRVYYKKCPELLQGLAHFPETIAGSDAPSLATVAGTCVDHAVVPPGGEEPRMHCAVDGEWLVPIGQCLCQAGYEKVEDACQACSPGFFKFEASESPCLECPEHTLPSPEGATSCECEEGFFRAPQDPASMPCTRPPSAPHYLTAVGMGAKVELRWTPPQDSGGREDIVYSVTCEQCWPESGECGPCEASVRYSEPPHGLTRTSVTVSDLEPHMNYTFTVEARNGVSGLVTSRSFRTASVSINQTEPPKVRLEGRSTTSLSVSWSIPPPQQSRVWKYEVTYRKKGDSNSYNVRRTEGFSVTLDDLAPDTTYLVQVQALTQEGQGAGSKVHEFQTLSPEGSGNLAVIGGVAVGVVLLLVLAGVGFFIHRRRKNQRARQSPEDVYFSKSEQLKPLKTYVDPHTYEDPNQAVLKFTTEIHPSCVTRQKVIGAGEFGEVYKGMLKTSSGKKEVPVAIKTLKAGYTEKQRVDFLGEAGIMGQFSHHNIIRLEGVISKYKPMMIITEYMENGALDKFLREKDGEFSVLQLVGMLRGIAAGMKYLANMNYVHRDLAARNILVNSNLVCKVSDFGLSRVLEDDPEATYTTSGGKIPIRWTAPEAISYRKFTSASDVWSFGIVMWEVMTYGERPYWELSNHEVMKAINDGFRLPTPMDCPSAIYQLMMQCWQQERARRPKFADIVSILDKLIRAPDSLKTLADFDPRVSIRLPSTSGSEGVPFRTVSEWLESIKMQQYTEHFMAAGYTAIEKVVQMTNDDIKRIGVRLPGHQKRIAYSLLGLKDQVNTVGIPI

IC50 (Ephrin type-A receptor 2): 2.1 µM
ΔTm [1]: 0.6 °C
IC50 [2]: 28.1 µM
ΔTm [3]: 0.9 °C
SMILES: CNc1ncc2cc(-c3cc(F)ccc3F)c(=O)n(CCCCN)c2n1
Activity (HCT-116): Toxic
Activity (SK-OV-3): 69%
